Legend:
U87MG cells [1] = experiment: cell death with pan-caspase inhibitor zVAD.fmk, Sytox assay; format: cell-based, human; details: 100 μM zVAD.fmk, 24 hr
Experimental: FIG. 11 is a bar graph depicting that cell death triggered by PIT-1 alone or in combination with TRAIL is inhibited by pan-caspase inhibitor zVAD.fmk. U87MG cells were incubated with or without 100 μM zVAD.fmk together with PIT-1 (25, 50, 100 μM) in the presence or absence of 10 ng/ml TRAIL for 24 hr, and analyzed by Sytox cell death assay.
Based on the critical role of PIP3-dependent Akt signaling in the regulation of cell survival, the effect of PIT-1 on the cancer cell viability was tested. […] For the ATP assay, a luminescence-based commercial kit (CellTiter-Glo, Promega, Madison, Wis.) was used. Thirty microliters of cell lysis/ATP detection reagent was added to each well, mixed for 10 min at room temperature, and the luminescence was measured using a Wallac Victor 3 plate reader (Perkin-Elmer, Wellesley, Mass.). […] Twenty microliters of the combined MTS/PMS solution was added into each well, incubated for 4 hr at 37° C., and the absorbance at 490 nm was measured using a Wallac Victor 3 plate reader. For the Sytox cell death assay, measuring loss of plasma membrane integrity, cells were incubated with 1 μM Sytox Green reagent (Molecular Probes, Eugene, Oreg.) for 30 min at 37° C. and the fluorescence intensity was measured using Wallac Victor 3 plate reader with excitation at 485 nm and emission at 545 nm. […]

cancer cells = format: cell-based
PH123 (Akt PH domain) = molecular target: T1, PH123 (Akt PH domain) (Homo sapiens, UniProt P31749); experiment: lipid overlay assay of PIP3/PH123 binding
T1 construct: recombinant 1-123 amino acid N-terminal fragment of human Akt1; made in house; host or cells: E. coli BL21(DE3)

[2] = molecular target: T2, PH domain of Akt (His6-Akt123) (Homo sapiens, UniProt P31749); experiment: NMR 2D HSQC 1H-15N binding analysis, His6-Akt123
T2 construct: Human Akt PH domain a.a; 1-123; made in house; host or cells: E. coli BL21(DE3)
Experimental: Human Akt PH domain a.a. 1-123 and human PDK1 PH domain a.a. 411-557 were cloned by PCR amplification into Bam HI/Eco RI sites of pGEX-6P-1 vector (GE Healthcare). For NMR experiments, His6-Akt PH123 was prepared by cloning corresponding PCR fragment between Nde I and Eco RI sites of pET-28 vector (Novagen). Recombinant proteins were expressed in BL21(DE3) E. coli. Expression was induced by addition of 100 μM IPTG for 16 hr at 25° C. Proteins were purified using glutathione-sepharose (GE Healthcare) or Ni-NTA beads (Qiagen) according to manufacturer's recommendations and dialyzed overnight against 50 mM Tris-HCl (pH 7.5), 150 mM NaCl, and 5 mM β-mercaptoethanol (b-ME) buffer.
To further characterize the mode of action of PIT-1, NMR-based analyses of PIT-1 binding to the PH domain of Akt were performed. […] PIT-1 was further titrated to identify residues primarily affected by the small molecule binding.

PI3K-PDK1-Akt signaling = PI3K-PDK1-Akt signaling in growth factor-stimulated SUM159 cells; format: cell-based, human
U87MG cells [3] = experiment: sensitization of U87MG cells to killing by TRAIL, ATP assay; format: cell-based, human; details: 50 μM PITs or 10 μM Akt inhibitor VIII, 10 ng/ml TRAIL, 48 hr
Experimental: FIG. 10 is a bar graph depicting that PITs, as well as Akt inhibitor VIII, sensitize U87MG cells to killing by TRAIL. U87MG cells were incubated with 50 μM PIT-1, PIT-2, PIT-1i-1 or 10 μM Akt inhibitor VIII in the presence or absence of 10 ng/ml TRAIL for 48 hr, followed by cell viability analysis using ATP assay.
Based on the critical role of PIP3-dependent Akt signaling in the regulation of cell survival, the effect of PIT-1 on the cancer cell viability was tested. Cancer cells were seeded into 96-well plates (white plates for ATP assay; black plates for fluorescent assay; clear plates for MTS assay) at the density of 5-10×10^3 cells per well in 100 μl of the appropriate media. […] For the ATP assay, a luminescence-based commercial kit (CellTiter-Glo, Promega, Madison, Wis.) was used. Thirty microliters of cell lysis/ATP detection reagent was added to each well, mixed for 10 min at room temperature, and the luminescence was measured using a Wallac Victor 3 plate reader (Perkin-Elmer, Wellesley, Mass.). […] Twenty microliters of the combined MTS/PMS solution was added into each well, incubated for 4 hr at 37° C., and the absorbance at 490 nm was measured using a Wallac Victor 3 plate reader. […] Next, 5 μl of 20% (v/v) Triton X-100 solution was added to each well and incubated for 1 hr at 37° C., and the signal was measured again. […]

[4] = system: AMP-activated protein kinase (AMPK); experiment: phosphorylation of AMPK and ACC (metabolic stress); format: cell-based
Source text: Changes in cell metabolism have emerged in recent years as an important component of PI3K/PIP3/Akt signaling, contributing to the regulation of cell viability and transformation by the PI3K/Akt pathway. Datta S R et al. (1999) Genes Dev 13:2905-27; Elstrom R L et al. (2004) Cancer Res 64:3892-9. Therefore, the possibility that PIT-1 may cause dysregulation of energy homeostasis and induction of the metabolic stress in cancer cells, which may contribute to the PIT-induced cell death, was investigated. […] Hardie D G (2007) Nat Rev Mol Cell Biol 8:774-85. […] Mathew R et al. (2007) Nat Rev Cancer 7:961-7. […] Takeuchi H et al. (2005) Cancer Res 65:3336-46.

rat aortic rings = experiment: rat aortic ring microvessel outgrowth assay; format: cell-based; details: 144 h; rat aortic rings in matrigel, 6 days, 3.125-100 μM; read-out: IC50, microvessel outgrowth in aortic ring sprouting
Experimental: For the aortic ring assay, aortas were isolated from 6-week old Sprague-Dawley rats and immediately transferred to a culture dish with serum-free medium. The fibroadipose tissue around the aortas was carefully removed and the aortas were cut into 1-mm long aortic ring fragments. After three consecutive washes in serum-free medium, the aortic rings were embedded into 70 μl Matrigel in 96-well plate and fed with 100 μl of serum-free M199 medium with or without PIT-1 at different concentrations (3.125-100 μM). The medium was replaced every 24 hr. Phase-contrast images were obtained on day 6, and the numbers of microvessel outgrowths per ring were counted.
Microvessel growth from rat aorta sections is the result of a combination of endothelial cell proliferation, migration, and tube formation, and thus provides a close approximation of in vivo angiogenesis. For this experiment the rat aortic rings were embedded in matrigel and then were treated with PIT-1 (3.125-100 μM) for 6 days, followed by counting the number of microvessel outgrowths under microscope.

T1 sequence (P31749 1-123): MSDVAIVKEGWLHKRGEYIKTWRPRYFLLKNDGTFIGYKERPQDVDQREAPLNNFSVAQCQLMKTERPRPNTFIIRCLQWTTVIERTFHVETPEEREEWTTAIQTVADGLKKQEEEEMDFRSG
T2 sequence (P31749 1-123): as above

Row | Structure (SMILES) | cell death alone or with TRAIL in presence of zVAD.fmk (U87MG cells [1]) | cancer cell invasion through matrigel (cancer cells) | effect on PIP3/PH123 binding, lipid overlay (PH123 (Akt PH domain)) | changes in 2D HSQC spectrum of His6-Akt123 [2] | PI3K-PDK1-Akt signaling in SUM159 cells (PI3K-PDK1-Akt signaling) | sensitization of U87MG cells to killing by TRAIL (U87MG cells [3]) | phosphorylation of AMPK [4] | phosphorylation of acetyl-CoA carboxylase (ACC) [4] | cytotoxic effects at the low concentrations used in migration and invasion experiments (cancer cells; P>0.05) | IC50 (rat aortic rings)
1 | O=C1NC(=S)S/C1=C\c1cc(O)c([N+](=O)[O-])cc1Cc1ccccc1 [PIT-2] | inhibited by a pan-caspase inhibitor zVAD.fmk | efficiently suppressed |  |  |  |  |  |  |  | 
2 | O=C(NC(=S)Nc1cc([N+](=O)[O-])cc(Cl)c1O)c1ccccc1 [PIT-1] | inhibited by a pan-caspase inhibitor zVAD.fmk | efficiently suppressed | concentration-dependent inhibitory effect | induces significant changes | significantly suppressed | substantially sensitized | significant increase in the phosphorylation | Increased phosphorylation | no significant cytotoxic effects | 4.58 µM

— US20120136033A1, “Small Molecule Antagonists of Phosphatidylinositol-3,4,5-Triphosphate (PIP3) and Uses Thereof” (President and Fellows of Harvard College, priority 2009, published 2012)
